Results as given in PubChem BioAssay AID434987 (Southern Research Specialized Biocontainment Screening …, 2010).
Activity calls are given as the source filed them. The rule behind the calls is not given here.

Tested on: M. tuberculosis H37Rv growth inhibition with meropenem
Experiment: dose response, H37Rv, with and without meropenem (AID 434987);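 note: growth over 7 days at 37 °C before Alamar Blue read on day 9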
[1] = M. tuberculosis H37Rv growth inhibition, measured here: IC50 without meropenem
[2] = M. tuberculosis H37Rv growth inhibition, measured here: IC90 without meropenem
[3] = measured here: IC90 with meropenem

Row | Compound | IC50 | IC50 [1] | IC90 [2] | IC90 [3]
1 | O=C(Nc1ccc(N2CCCCC2)cc1)c1cc([N+](=O)[O-])cc([N+](=O)[O-])c1 | 43.9 µM (inactive) | > 100 µM | > 100 µM | > 100 µM
2 | CCOC(=O)CNC(=O)/C(=C\c1ccc(F)cc1)NC(=O)c1ccccc1 | 19.1 µM | 55.5 µM | > 100 µM | 35.1 µM
3 | Cc1cc(C)c(OCC(=O)Nc2nc3ccccc3[nH]2)c(C)c1 | 1.22 µM | 22.1 µM | > 100 µM | 65.2 µM
4 | Cc1nnc(SCC2=C(C(=O)O)N3C(=O)C(NC(=O)COc4ccc(F)cc4)C3SC2)s1 (stereo unspecified) | 1.74 µM | 99 µM | > 100 µM | 9.33 µM
5 | CCOC(=O)C1CCN(C(=O)CCCCn2c(=O)[nH]c3ccccc3c2=O)CC1 | > 100 µM (inactive) | > 100 µM | > 100 µM | > 100 µM
6 | O=c1[nH]c(CSc2nnc3ccccn23)nc2ccccc12 | > 100 µM (inactive) | > 100 µM | > 100 µM | > 100 µM
7 | O=S(=O)(Nc1cccc(-c2ccc(N3CCCCCC3)nn2)c1)c1ccccc1Cl | 16 µM | > 100 µM | > 100 µM | > 25 µM
8 | CC(C)CCSc1nc(N2CCOCC2)c2c(c1C#N)CC(C)(C)OC2 | 78.2 µM (inactive) | > 100 µM | > 100 µM | > 100 µM
9 | CCOC(=O)/C(C#N)=C/c1ccc(OCC(=O)Nc2ccccc2)c(OC)c1 | 98.4 µM (inactive) | > 100 µM | > 100 µM | > 100 µM
10 | CN(C)CC[C@@H](c1ccc(Br)cc1)c1ccccn1 | > 100 µM (inactive) | > 100 µM | > 100 µM | > 100 µM
11 | O=C(O)C1CC(=O)N(c2ccc(OCc3ccccc3Cl)cc2)C1 (stereo unspecified) | 14.2 µM | 41.6 µM | > 100 µM | > 100 µM
12 | CSc1cccc(NC(=O)c2ccc(Cl)nc2)c1 | > 100 µM (inactive) | > 100 µM | > 100 µM | > 100 µM
13 | Cc1ccc(C2=NN(C(=O)CN3C(=O)c4ccccc4S3(=O)=O)C(c3ccco3)C2)cc1 (stereo unspecified) | > 100 µM (inactive) | > 100 µM | > 100 µM | > 100 µM
14 | CNC(=O)COC(=O)c1ccccc1NC(=O)c1ccco1 | 35.1 µM (inactive) | 47.1 µM | > 100 µM | > 100 µM
15 | CC(=O)Nc1ccc(C(=O)N(C2=NC(C)CS2)c2ccc(Cl)cc2)cc1 (stereo unspecified) | 29.8 µM (inactive) | 44.1 µM | > 100 µM | > 100 µM
16 | CCN1C(=O)[C@@H]2[C@@H](c3ccc(-c4ccc(Cl)c(Cl)c4)c(OC)c3)N3CCC[C@@]3(C(=O)OC)[C@@H]2C1=O | > 100 µM (inactive) | > 100 µM | > 100 µM | > 100 µM
17 | NC(=S)N/N=C/c1cccc(/C=N/NC(N)=S)c1 | 25 µM | > 100 µM | > 100 µM | > 100 µM
18 | CCOC(=O)C1CCN(C(=O)c2sc3nc(C)nc(N4CCC(C)CC4)c3c2C)CC1 | 69.5 µM (inactive) | 76.5 µM | > 100 µM | > 100 µM
19 | COc1cccc(NS(=O)(=O)c2ccc3[nH]cc(C(=O)NCCC(C)C)c(=O)c3c2)c1 | > 100 µM (inactive) | > 100 µM | > 100 µM | > 100 µM
20 | Cc1ccc(C)c(NC(=O)c2cc(-c3cccnc3)nc3ccccc23)c1 | > 100 µM (inactive) | > 100 µM | > 100 µM | > 100 µM
21 | O=c1c2c3n(c(=S)nc2[nH]n1-c1ccccc1)CCCCC3 | 12.4 µM (inactive) | 27.1 µM | > 100 µM | 13.3 µM
22 | CCC1(CC)Cc2ccccc2C(N)=C1C#N | > 100 µM (inactive) | > 100 µM | > 100 µM | > 100 µM
23 | CCOc1ccc(N2C(=O)CC(N)C2=O)cc1 (stereo unspecified) | 30.9 µM (inactive) | 45.9 µM | 51.4 µM | 52.4 µM
24 | O=C(c1cc2c(s1)CCCC2)n1cccn1 | 93.4 µM (inactive) | > 100 µM | > 100 µM | > 100 µM
25 | COc1ccc(/C(O)=C/C(=O)C(=O)NNC(=O)C(O)(c2ccccc2)c2ccccc2)cc1 | > 100 µM (inactive) | > 100 µM | > 100 µM | > 100 µM
26 | COC(=O)C1=C(C)NC(=O)/C1=C\c1cc(C)n(-c2cc(C)cc(C)c2)c1C | 88.9 µM (inactive) | 97.9 µM | > 100 µM | > 100 µM
27 | CCOc1ccc(NC(=S)Nc2cccnc2)cc1 | 89.5 µM (inactive) | > 100 µM | > 100 µM | > 100 µM
28 | COc1ccc(-c2csc(Nc3ccc(C)cn3)n2)cc1OC | 44.3 µM (inactive) | > 100 µM | > 100 µM | > 100 µM
29 | COc1ccc2[nH]c3c(c2c1)CCN=C3C | > 100 µM (inactive) | > 100 µM | > 100 µM | > 100 µM
